Consider one substance from US20170037091A1, “STY PEPTIDES FOR INHIBITION OF ANGIOGENESIS” (RESEARCH DEVELOPMENT FOUNDATION, priority 2014, published 2017).

Test [1] deals with human retinal pigment epithelial cells (ARPE19). The experiment in a line: XTT cell proliferation assay, ARPE-19 cells. The class given is cell-based. The following applies: 30 mg/100 mL, XTT at 72 h. The procedure:
(§1) A 26 amino acid sequence corresponding to a Ser-Thr-Tyr domain within RTEF-1 (FIG. 1), linked to a 10 amino acid cell importation signal (RMR) was synthesized (GenScript NJ). Human ocular melanoma cells (Mel 270, Mel 202), retinoblastoma cells (Y79; ATTC, MD), primate ocular endothelial retina/choroid ocular endothelial cells (RF/6A; ATCC, MD), human retinal pigment epithelial cells (ARPE19; ATCC, MD), and the CRL 1500 breast cancer cell line (ATCC, MD) were plated into 96 well plates and cultured for 24 h. Recombinant STY-RMR peptide was added to the cell culture media at various concentrations (10 to 30 mg/100 mL).
(§2) Cell proliferation was assessed at 72 h using a colorimetric XTT assay (Roche Diagnostics, Indianpolis, Conn., USA). Cell proliferation was expressed as a percentage and compared with untreated control cell growth (N=3).
For orientation: Tetrazolium assays rely on reduction of a dye to a coloured formazan, in cell work by metabolically active cells.

Test [2] concerns Human ocular melanoma cells (Mel 202). The experiment in a line: XTT cell proliferation assay, Mel 202 ocular melanoma cells. The class given is cell-based. As to conditions: 30 mg/100 mL, XTT at 72 h, N=3. The procedure:
as §1, §2

In test [3] the test system is secreted VEGF, ocular retinal-choroidal derived vascular endothelial cells (RF/6A). The experiment in a line: VEGF ELISA of culture media, RF/6A cells. The class given is cell-based, primate. As to conditions: 30 mg/100 mL, three days. As to the method:
as §1
(§3) The amount of VEGF within the media was determined by VEGF ELISA (R&D Systems, MN, USA) and compared between STY-RMR treated and controls (N=3).

In test [4] the test system is secreted VEGF, breast cancer cells (CRL 1500). The experiment in a line: VEGF ELISA of culture media, CRL 1500 breast cancer cells. The following applies: 0.1 μg/100 μL, three days. It counts as cell-based, human. The procedure:
(§4) A 26 amino acid sequence corresponding to a Ser-Thr-Tyr domain within RTEF-1 (FIG. 1), linked to a 10 amino acid cell importation signal (RMR) was synthesized (GenScript NJ). Human ocular melanoma cells (Mel 270, Mel 202), retinoblastoma cells (Y79; ATTC, MD), primate ocular endothelial retina/choroid ocular endothelial cells (RF/6A; ATCC, MD), human retinal pigment epithelial cells (ARPE19; ATCC, MD), and the CRL 1500 breast cancer cell line (ATCC, MD) were plated into 96 well plates and cultured for 24 h. […]
as §3
On the technique in general: An ELISA detects its analyte on a solid surface through an enzyme-linked reagent.

In test [5] the test system is secreted VEGF, ocular melanoma cell line 270. Put plainly: VEGF ELISA of culture media, Mel 270 cells. As to conditions: 30 mg/100 mL, three days. The class given is cell-based, human. As to the method:
as §1, §3

Test [6] concerns secreted VEGF in the media of all tested cell lines. The experiment in a line: VEGF ELISA of culture media, all tested cell lines (summary statement). It counts as cell-based. As to conditions: all tested cell lines exposed to STY-RMR. As to the method:
as §1, §3

The test system of test [7] is CRL 1500 breast cancer cell line. The experiment in a line: XTT cell proliferation assay, CRL 1500 breast cancer cells. The class given is cell-based, human. The procedure:
as §4, §2

The subject of test [8] is primate ocular endothelial retina/choroid ocular endothelial cells (RF/6A). The experiment in a line: XTT cell proliferation assay, RF/6A ocular endothelial cells. The class given is cell-based. The following applies: 30 mg/100 mL, XTT at 72 h. As to the method: as §1, §2
Test [9] relates to secreted VEGF, ARPE19 cells. Put plainly: VEGF ELISA of culture media, ARPE19 cells. The class given is cell-based, human. The following applies: 30 mg/100 mL, three days. As to the method:
as §1, §3

In test [10] the test system is Human ocular melanoma cells (Mel 270). Put plainly: XTT cell proliferation assay, Mel 270 ocular melanoma cells. It counts as cell-based. The following applies: 30 mg/100 mL, XTT at 72 h. The procedure: as §1, §2

Turning to “STY-RMR: 26 amino acid STY domain of RTEF-1 linked to 10 amino acid RMR cell importation signal; 36 amino acids (SEQ ID NO:2) (SSFYGVSSQYESPENMIITCSTKVCSRMRRMRRMRR)”, in [1], the “inhibition of ARPE-19 retinal pigment epithelial cell proliferation” value came to 75%. Further, in [2], the “inhibition of Mel 202 ocular melanoma cell proliferation” value worked out at 87%. Besides, the “reduction of secreted VEGF, RF/6A ocular vascular endothelial cells (ELISA)” value in test [3] was determined as 80%. Also, in [4], the “decrease of VEGF levels in breast tumor cells (ELISA)” value came to 78%. In addition, in test [5], the “reduction in secreted VEGF levels, ocular melanoma cell line 270 (ELISA)” value is reported as 81%. The “secreted VEGF in the media, result in words” value in test [6] is “decreased”. In addition, the “inhibition of breast cancer cell (CRL 1500) proliferation” value in test [7] (0.1 μg/100 μL twice a day for three days) was determined as 9%; in test [7] (0.2 μg/100 μL twice a day for three days), 27%; in [7] (0.5 μg/100 μL twice a day for three days) it was 27%; in test [7] (1 μg/100 μL twice a day for three days), 27%; in test [7] (5 μg/100 μL twice a day for three days), 50%; in [7] (6 μg/100 μL twice a day for three days), 50%. The “inhibition of RF/6A ocular endothelial cell proliferation” value in test [8] is 42%. Moreover, the “reduction of VEGF levels compared to control, ARPE19 cells (ELISA)” value in [9] is 88%. Further, the “inhibition of Mel270 ocular melanoma cell proliferation below control” value in test [10] worked out at 60%.
